{"source": "patent US6046169A", "about": "“Inhibitors of factor XA” (COR Therapeutics, Inc., priority 1995, dated 2000)", "key": {"[1]": {"test_system": "coagulation parameters (aPTT, PT, FIB)"}, "rabbit venous thrombosis [2]": {"test_system": "rabbit venous thrombosis", "test": "Rabbit deep vein thrombosis model", "settings": "bolus + infusion, doses 200 + 1.98 to 1500 + 14.85 μg/kg + μg/kg/min"}, "cuticle bleeding time": {"test_system": "cuticle bleeding time", "test": "Cuticle Bleeding Time model in rabbits", "format": "in vivo, rabbit", "settings": "1500 μg/kg+14.85 μg/kg/min", "method": "In an ancillary study, a Cuticle Bleeding Time model was used to evaluate the effect of test compounds on bleeding time (BT) measurements in rabbits. The standardized protocol involved anesthesia and catheterization of rabbits as previously described in this Example 43. To measure BT, a toe nail was cut 5 mm from the base of the cuticle with a canine nail trimming device. Time until cessation of bleeding was recorded by wicking the blood on to BT blotting paper in 30 second intervals. Test compound was administered as a bolus followed by infusion regimen. Two BT measurements were obtained prior to administration of test compound and three BT measurements accomplished serially after initiation of steady state infusion of test compound. BT measurements were allowed to continue for up to 30 minutes at which time it was stopped with application of silver nitrate. Blood samples were obtained just prior to all BT measurements and processed for measurement of hematological and coagulation parameters."}, "[3]": {"settings": "rabbit, in vivo, iv, 2 mg/kg"}, "rabbit venous thrombosis [4]": {"test_system": "rabbit venous thrombosis", "settings": "in vivo"}, "in vivo": {"test": "in vivo", "settings": "rabbit, iv"}}, "note": "Square brackets hold non-standard residues; d marks the D form. Peptide text beside a SMILES is read from it. * marks the point of attachment. Boc = CC(C)(C)OC(=O)*"}
{"molecule": "CC(C)(C)OC(=O)N[C@H](CCCNC(=N)N)C(=O)NCC(=O)N[C@H](C=O)CCCNC(=N)N", "note": "[Boc--D-Arg--Gly--Arg--H, Boc-D-Arg-Gly-Arg-H] (Boc-[dR]-Gly-Arg-aldehyde)", "values": [{"measurement": "FIB prolongation", "setting": "[1]; rabbits, I.V. bolus 2.0 mg/kg", "result": 1.07, "unit": "fold"}, {"measurement": "PT prolongation", "setting": "[1]; rabbits, I.V. bolus 2.0 mg/kg", "result": 1.15, "unit": "fold"}, {"measurement": "aPTT prolongation as compared to pretreatment values", "setting": "[1]; rabbits, I.V. bolus 2.0 mg/kg", "result": 2.45, "unit": "fold"}, {"measurement": "anticoagulative effect", "setting": "[1]; rabbits, I.V. bolus 2.0 mg/kg", "result": "plasma concentration-dependent anticoagulative effect"}, {"measurement": "antithrombotic efficacy in the rabbit venous thrombosis model", "setting": "rabbit venous thrombosis [2]", "result": "antithrombotic efficacy at the higher doses evaluated"}]}
{"molecule": "CC(C)(C)OC(=O)N[C@H](CCCN=C(N)N)C(=O)NCC(=O)N[C@H](C=O)CCCN=C(N)N", "note": "[Boc--D-Arg--Gly--Arg--H, Boc-D-Arg-Gly-Arg-H] (Boc-[dR]-Gly-Arg-aldehyde)", "values": [{"measurement": "changes in hematological parameters from pre to post administration", "setting": "cuticle bleeding time; cuticle BT experiments", "result": "no significant changes"}, {"measurement": "increase of cuticle BT from pre-administration baseline", "setting": "cuticle bleeding time; rabbits, n=4, ±1.26", "result": 2.14, "unit": "fold"}, {"measurement": "peak plasma concentration by HPLC", "setting": "[3]", "result": 3.78, "unit": "µg/mL"}, {"measurement": "changes in hematological parameters as compared to saline controls", "setting": "[1]; rabbit, in vivo, iv, 2 mg/kg", "result": "no significant changes"}, {"measurement": "effects on hematological parameters as compared to saline controls", "setting": "rabbit venous thrombosis [4]", "result": "no significant effects"}, {"measurement": "half-life", "setting": "in vivo", "result": 1.18, "unit": "h"}, {"measurement": "Vd", "setting": "in vivo; 2 mg/kg", "result": 0.118, "unit": "L/kg"}]}
